ChEMBL document CHEMBL3885881, “DrugMatrix”

Species on record: Rattus norvegicus
Experiment: DrugMatrix - Regimen: Daily Repeat
Assay type: toxicity, organism-based, Sprague-Dawley
Design: regimen Daily Repeat, gender Male, age 6-8 weeks
Conditions: in vivo, sc, route subcutaneous, […]; for ABSOLUTE BASOPHIL / ABSOLUTE EOSINOPHIL / ABSOLUTE LYMPHOCYTE / ABSOLUTE MONOCYTE / ABSOLUTE SEGMENTED NEUTROPHIL / BASOPHIL / EOSINOPHIL / ERYTHROCYTE COUNT / HEMATOCRIT / HEMOGLOBIN / LEUKOCYTE COUNT / LYMPHOCYTE / MEAN CORPUSCULAR HEMOGLOBIN / MEAN CORPUSCULAR HEMOGLOBIN CONCENTRATION / MEAN CORPUSCULAR VOLUME / MONOCYTE / NEUTROPHIL / NUCLEATED RED BLOOD CELLS / PLATELET COUNT: tissue Blood; for ALANINE AMINOTRANSFERASE / ALBUMIN / ALKALINE PHOSPHATASE / ASPARTATE AMINOTRANSFERASE / BLOOD UREA NITROGEN / CARBON DIOXIDE / CHLORIDE / CHOLESTEROL / CREATINE PHOSPHOKINASE / CREATININE / GLUCOSE / LACTATE DEHYDROGENASE / LIPASE / PHOSPHORUS / POTASSIUM / SODIUM / TOTAL BILIRUBIN / TOTAL PROTEIN / URIC ACID: tissue Plasma
[1] = 7 mg/kg, 72 h, dose level High, time 3 day
[2] = 7 mg/kg, 120 h, dose level High, time 5 day
[3] = 72 h, dose 1.5 mg/Kg, dose level Low, time 3 day
[4] = 120 h, dose 1.5 mg/Kg, dose level Low, time 5 day

Structure (SMILES): CC1=C(/C=C/C(C)=C/C=C/C(C)=C/C(=O)O)C(C)(C)CCC1 [TRETINOIN]
- ABSOLUTE BASOPHIL [1]: 0 CELLS/uL
- ABSOLUTE EOSINOPHIL [1]: 0 CELLS/uL
- ABSOLUTE LYMPHOCYTE [1]: 16685.33 CELLS/uL
- ABSOLUTE MONOCYTE [1]: 222.33 CELLS/uL
- ABSOLUTE SEGMENTED NEUTROPHIL [1]: 2859 CELLS/uL
- BASOPHIL [1]: 0%
- EOSINOPHIL [1]: 0%
- ERYTHROCYTE COUNT [1]: 5.42 x10E6/uL
- HEMATOCRIT [1]: 34.57%
- HEMOGLOBIN [1]: 12.7 G/DL
- LEUKOCYTE COUNT [1]: 19.77 x10E3/uL
- LYMPHOCYTE [1]: 84%
- MEAN CORPUSCULAR HEMOGLOBIN [1]: 23.43 pg
- MEAN CORPUSCULAR HEMOGLOBIN CONCENTRATION [1]: 36.73 G/DL
- MEAN CORPUSCULAR VOLUME [1]: 63.77 fL
- MONOCYTE [1]: 1%
- NEUTROPHIL [1]: 15%
- NUCLEATED RED BLOOD CELLS [1]: 0 /100WBC
- PLATELET COUNT [1]: 1323.33 x10E3/uL
- ALANINE AMINOTRANSFERASE [1]: 50 u/L
- ALBUMIN [1]: 4.03 G/DL
- ALKALINE PHOSPHATASE [1]: 328.67 u/L
- ASPARTATE AMINOTRANSFERASE [1]: 77.33 u/L
- BLOOD UREA NITROGEN [1]: 15.67 mg/dL
- CARBON DIOXIDE [1]: 15 mmol/L
- CHLORIDE [1]: 103.67 MEQ/L
- CHOLESTEROL [1]: 79 mg/dL
- CREATINE PHOSPHOKINASE [1]: 311.33 u/L
- CREATININE [1]: 0.19 mg/dL
- GLUCOSE [1]: 165.33 mg/dL
- LACTATE DEHYDROGENASE [1]: 120.33 u/L
- LIPASE [1]: 9.67 u/L
- PHOSPHORUS [1]: 13.53 mg/dL
- POTASSIUM [1]: 7.16 MEQ/L
- SODIUM [1]: 147 MEQ/L
- TOTAL BILIRUBIN [1]: 0.2 mg/dL
- TOTAL PROTEIN [1]: 5.97 G/DL
- URIC ACID [1]: 1.5 mg/dL
- ABSOLUTE BASOPHIL [2]: 0 CELLS/uL
- ABSOLUTE EOSINOPHIL [2]: 71.67 CELLS/uL
- ABSOLUTE LYMPHOCYTE [2]: 17691.67 CELLS/uL
- ABSOLUTE MONOCYTE [2]: 531.67 CELLS/uL
- ABSOLUTE SEGMENTED NEUTROPHIL [2]: 3905 CELLS/uL
- BASOPHIL [2]: 0%
- EOSINOPHIL [2]: 0.33%
- ERYTHROCYTE COUNT [2]: 5.84 x10E6/uL
- HEMATOCRIT [2]: 36.1%
- HEMOGLOBIN [2]: 13.37 G/DL
- LEUKOCYTE COUNT [2]: 22.2 x10E3/uL
- LYMPHOCYTE [2]: 79.67%
- MEAN CORPUSCULAR HEMOGLOBIN [2]: 22.9 pg
- MEAN CORPUSCULAR HEMOGLOBIN CONCENTRATION [2]: 37.03 G/DL
- MEAN CORPUSCULAR VOLUME [2]: 61.8 fL
- MONOCYTE [2]: 2.33%
- NEUTROPHIL [2]: 17.67%
- NUCLEATED RED BLOOD CELLS [2]: 0 /100WBC
- PLATELET COUNT [2]: 1087.33 x10E3/uL
- ALANINE AMINOTRANSFERASE [2]: 46.33 u/L
- ALBUMIN [2]: 3.87 G/DL
- ALKALINE PHOSPHATASE [2]: 319.67 u/L
- ASPARTATE AMINOTRANSFERASE [2]: 88 u/L
- BLOOD UREA NITROGEN [2]: 14.67 mg/dL
- CARBON DIOXIDE [2]: 33.33 mmol/L
- CHLORIDE [2]: 103.33 MEQ/L
- CHOLESTEROL [2]: 75.67 mg/dL
- CREATINE PHOSPHOKINASE [2]: 348 u/L
- CREATININE [2]: 0.28 mg/dL
- GLUCOSE [2]: 172.33 mg/dL
- LACTATE DEHYDROGENASE [2]: 105.67 u/L
- LIPASE [2]: 12 u/L
- PHOSPHORUS [2]: 13.8 mg/dL
- POTASSIUM [2]: 6.84 MEQ/L
- SODIUM [2]: 147.23 MEQ/L
- TOTAL BILIRUBIN [2]: 0.13 mg/dL
- TOTAL PROTEIN [2]: 6.07 G/DL
- URIC ACID [2]: 1.8 mg/dL
- ABSOLUTE BASOPHIL [3]: 0 CELLS/uL
- ABSOLUTE EOSINOPHIL [3]: 41.67 CELLS/uL
- ABSOLUTE LYMPHOCYTE [3]: 10665.33 CELLS/uL
- ABSOLUTE MONOCYTE [3]: 55.67 CELLS/uL
- ABSOLUTE SEGMENTED NEUTROPHIL [3]: 2104 CELLS/uL
- BASOPHIL [3]: 0%
- EOSINOPHIL [3]: 0.33%
- ERYTHROCYTE COUNT [3]: 4.74 x10E6/uL
- HEMATOCRIT [3]: 30.27%
- HEMOGLOBIN [3]: 11.93 G/DL
- LEUKOCYTE COUNT [3]: 12.87 x10E3/uL
- LYMPHOCYTE [3]: 83.67%
- MEAN CORPUSCULAR HEMOGLOBIN [3]: 25.23 pg
- MEAN CORPUSCULAR HEMOGLOBIN CONCENTRATION [3]: 39.47 G/DL
- MEAN CORPUSCULAR VOLUME [3]: 63.87 fL
- MONOCYTE [3]: 0.33%
- NEUTROPHIL [3]: 15.67%
- NUCLEATED RED BLOOD CELLS [3]: 0 /100WBC
- PLATELET COUNT [3]: 1093.33 x10E3/uL
- ALANINE AMINOTRANSFERASE [3]: 51 u/L
- ALBUMIN [3]: 4.23 G/DL
- ALKALINE PHOSPHATASE [3]: 460.67 u/L
- ASPARTATE AMINOTRANSFERASE [3]: 100 u/L
- BLOOD UREA NITROGEN [3]: 15.67 mg/dL
- CARBON DIOXIDE [3]: 22.33 mmol/L
- CHLORIDE [3]: 107.67 MEQ/L
- CHOLESTEROL [3]: 98.33 mg/dL
- CREATINE PHOSPHOKINASE [3]: 387.67 u/L
- CREATININE [3]: 0.23 mg/dL
- GLUCOSE [3]: 164.33 mg/dL
- LACTATE DEHYDROGENASE [3]: 522.33 u/L
- LIPASE [3]: 11.33 u/L
- PHOSPHORUS [3]: 12.5 mg/dL
- POTASSIUM [3]: 6.67 MEQ/L
- SODIUM [3]: 150.27 MEQ/L
- TOTAL BILIRUBIN [3]: 0.27 mg/dL
- TOTAL PROTEIN [3]: 6.27 G/DL
- URIC ACID [3]: 1.97 mg/dL
- ABSOLUTE BASOPHIL [4]: 0 CELLS/uL
- ABSOLUTE EOSINOPHIL [4]: 0 CELLS/uL
- ABSOLUTE LYMPHOCYTE [4]: 9182.33 CELLS/uL
- ABSOLUTE MONOCYTE [4]: 21 CELLS/uL
- ABSOLUTE SEGMENTED NEUTROPHIL [4]: 1630 CELLS/uL
- BASOPHIL [4]: 0%
- EOSINOPHIL [4]: 0%
- ERYTHROCYTE COUNT [4]: 5.54 x10E6/uL
- HEMATOCRIT [4]: 34.87%
- HEMOGLOBIN [4]: 12.9 G/DL
- LEUKOCYTE COUNT [4]: 10.83 x10E3/uL
- LYMPHOCYTE [4]: 85%
- MEAN CORPUSCULAR HEMOGLOBIN [4]: 23.27 pg
- MEAN CORPUSCULAR HEMOGLOBIN CONCENTRATION [4]: 37 G/DL
- MEAN CORPUSCULAR VOLUME [4]: 62.9 fL
- MONOCYTE [4]: 0.33%
- NEUTROPHIL [4]: 14.67%
- NUCLEATED RED BLOOD CELLS [4]: 0 /100WBC
- PLATELET COUNT [4]: 981.67 x10E3/uL
- ALANINE AMINOTRANSFERASE [4]: 52 u/L
- ALBUMIN [4]: 3.9 G/DL
- ALKALINE PHOSPHATASE [4]: 336.33 u/L
- ASPARTATE AMINOTRANSFERASE [4]: 91 u/L
- BLOOD UREA NITROGEN [4]: 16.33 mg/dL
- CARBON DIOXIDE [4]: 24.33 mmol/L
- CHLORIDE [4]: 107 MEQ/L
- CHOLESTEROL [4]: 79 mg/dL
- CREATINE PHOSPHOKINASE [4]: 270.33 u/L
- CREATININE [4]: 0.17 mg/dL
- GLUCOSE [4]: 180.33 mg/dL
- LACTATE DEHYDROGENASE [4]: 147.67 u/L
- LIPASE [4]: 10.33 u/L
- PHOSPHORUS [4]: 14.17 mg/dL
- POTASSIUM [4]: 6.48 MEQ/L
- SODIUM [4]: 147.97 MEQ/L
- TOTAL BILIRUBIN [4]: 0.23 mg/dL
- TOTAL PROTEIN [4]: 6.07 G/DL
- URIC ACID [4]: 2.07 mg/dL
